Like-named read-outs stand apart in the source and are kept apart here. Blank lines part the entries; values can stand above or below the molecule they belong to.
Key:
MCF7-DoxyR cells [1] = assay: Mammosphere formation assay (CSC propagation) in doxycycline-resistant MCF7 cells; type: cell-based
Description: To test this hypothesis, the inventors generated a cancer cell sub-population metabolically synchronized toward a glycolytic phenotype by chronically treating MCF7 cells with the FDA-approved antibiotic doxycycline, a mitochondrial inhibitor. Briefly, MCF7 cells were obtained from ATCC and cultured in DMEM (Sigma Aldrich). MCF7 cells resistant to doxycycline (MCF7-DoxyR cells) were selected by a stepwise exposure to increasing concentrations of doxycycline. […] It should be appreciated that other cancer cell lines and other mitochondrial (oxidation) inhibitors may be used.
To more directly assess functional CSC activity, mammosphere formation assays may be used. Briefly, a single cell suspension of MCF7 or MCF7 DoxyR cells may be prepared using enzymatic (1× Trypsin-EDTA, Sigma Aldrich), and manual disaggregation (25-gauge needle). Cells may be plated at a density of 500 cells/cm2 in mammosphere medium (DMEM-F12/B27/20-ng/ml EGF/PenStrep) in nonadherent conditions, in culture dishes coated with (2-hydroxyethylmethacrylate) (poly-HEMA, Sigma), in the presence of Atovaquone (FIG. 6A) or Chloroquine (FIG. 6B). Cells may be grown for 5 days and maintained in a humidified incubator at 37° C. at an atmospheric pressure in 5% (v/v) carbon dioxide/air. After 5 days for culture, spheres larger than 50 μm may be counted using an eye piece graticule, and the percentage of cells plated which formed spheres may be calculated. Mammosphere assays may be performed in triplicate and repeated three times independently.
The present approach further involves methods of testing the efficacy of glycolysis inhibitors on CSC propagation using other clinically-approved drugs that functionally behave as OXPHOS inhibitors (Irinotecan, Sorafenib, Niclosamide) or glycolysis inhibitors (Stiripentol) on mammosphere formation. Briefly, MCF7 DoxyR cells were cultured in low attachment plates and treated with Vehicle or increasing concentrations of the lactate dehydrogenase (LDH) inhibitor Stiripentol (2 μM to 100 μM) (FIG. 11A) or the OXPHOS inhibitors Irinotecan (500 nM to 80 μM) (FIG. 11B), Sorafenib (500 nM to 40 μM) (FIG. 11C), Berberine Chloride (500 nM to 10 μM) (FIG. 11D) and Niclosamide (FIG. 11E-F) for 5 days before counting. Independent experiments were performed in triplicate.

MCF7-DoxyR cells [2] = assay: Proliferation assay by EdU incorporation (flow cytometry); type: cell-based; settings: MCF7-DoxyR cells (chronic doxycycline) vs MCF7 cells
Description: To test this hypothesis, the inventors generated a cancer cell sub-population metabolically synchronized toward a glycolytic phenotype by chronically treating MCF7 cells with the FDA-approved antibiotic doxycycline, a mitochondrial inhibitor. Briefly, MCF7 cells were obtained from ATCC and cultured in DMEM (Sigma Aldrich). MCF7 cells resistant to doxycycline (MCF7-DoxyR cells) were selected by a stepwise exposure to increasing concentrations of doxycycline. Specifically, MCF7 cells were initially exposed to 12.5 μM doxycycline, followed by 3 weeks of treatment with 25 μM doxycycline, followed by 3 weeks of treatment with 50 μM doxycycline. […]
To determine functional effects on doxycycline on CSC propagation, proliferation may be measured by determining relative levels of EdU incorporation (EdU refers to the alkyne-containing thymidine analog (5-ethynyl-2′-deoxyuridine) which is incorporated into DNA during active DNA synthesis). […] EdU was detected after permeabilization by staining cells with Click-iT Plus reaction cocktail containing the Fluorescent dye picolylazide for 30 min at room temperature. Samples were then washed and analyzed using flow cytometer. […] Data were analyzed using FlowJo software. FIGS. 7A-B show MCF7-DoxyR cells have a reduced ability to proliferate by more than 60%, as measured using EdU-incorporation.

MCF7-DoxyR cells [3] = assay: Cell migration, wound healing scratch assay; type: cell-based; settings: MCF7-DoxyR cells (chronic doxycycline) vs MCF7 cells, 24 h
Description: To test this hypothesis, the inventors generated a cancer cell sub-population metabolically synchronized toward a glycolytic phenotype by chronically treating MCF7 cells with the FDA-approved antibiotic doxycycline, a mitochondrial inhibitor. Briefly, MCF7 cells were obtained from ATCC and cultured in DMEM (Sigma Aldrich). MCF7 cells resistant to doxycycline (MCF7-DoxyR cells) were selected by a stepwise exposure to increasing concentrations of doxycycline. Specifically, MCF7 cells were initially exposed to 12.5 μM doxycycline, followed by 3 weeks of treatment with 25 μM doxycycline, followed by 3 weeks of treatment with 50 μM doxycycline. The doxycycline-resistant MCF7 cells were then routinely maintained in regular medium supplemented with 25 μM Doxycycline. It should be appreciated that other cancer cell lines and other mitochondrial (oxidation) inhibitors may be used.
The present approach further involves methods of analyzing the effects of chronic treatment on functionality by considering cell migration. […] The migration assay was evaluated using Incucyte Zoom (Essen Bioscience). The rate of migration was measured by quantifying the % of wound closure area, determined using the software ImageJ, according to the formula: % of wound closure=[(At=0 h−At=Δ h)/At=0 h]×100%. […] Statistical significance was measured using the t-test. […]

MCF7 CSCs = settings: control MCF7 CSCs; Bonuccelli et al, Oncotarget 2017; read-out: IC-50, MCF7 CSC propagation; cited from earlier work
[4] = Homo sapiens, 120 h, mammosphere formation, MCF7 DoxyR cells, 5 days, read-out: IC-50, DoxyR CSC propagation
[5] = Homo sapiens, mammosphere formation, MCF7 DoxyR cells, read-out: IC-50, DoxyR CSC propagation
[6] = Homo sapiens, MCF7, 120 h, read-out: inhibition of CSC propagation of MCF7-DoxyR cells

Structure (SMILES): O=C(Nc1ccc([N+](=O)[O-])cc1Cl)c1cc(Cl)ccc1O [Niclosamide]
IC50 (MCF7-DoxyR cells [1]; [4]): ~0.1 µM

Structure (SMILES): C[C@H]1c2cccc(O)c2C(=O)C2=C(O)[C@]3(O)C(=O)C(C(N)=O)=C(O)[C@@H](N(C)C)[C@@H]3[C@@H](O)[C@@H]21 [doxycycline]
reduction in ability to proliferate (EdU-incorporation) (MCF7-DoxyR cells [2]): more than 60% | reduction in cell migration (scratch assay) (MCF7-DoxyR cells [3]): greater than 50%

Structure (SMILES): O=C1O[C@H]([C@@H](O)CO)C(O)=C1O [Vitamin C, ascorbic acid]
inhibition at 250 µM (MCF7-DoxyR cells [1]; Homo sapiens, MCF7, 250 μM Vitamin C): > 90% | inhibition at 500 µM (MCF7-DoxyR cells [1]; Homo sapiens, MCF7, 500 μM Vitamin C): 100% | IC50 (MCF7-DoxyR cells [1]; [5]): 100 to 250 µM | fold more sensitive, DoxyR CSCs vs control MCF7 CSCs (MCF7-DoxyR cells [1]; ratio of IC-50 in MCF7 CSCs to DoxyR CSCs, identical assay conditions): 4-10 fold | IC50 (MCF7 CSCs): 1000 µM

Structure (SMILES): CCN(CC)CCCC(C)Nc1ccnc2cc(Cl)ccc12 (centres unmarked) [Chloroquine]
inhibition at 25 µM (MCF7-DoxyR cells [1]; [6]): > 75% | inhibition at 50 µM (MCF7-DoxyR cells [1]; [6]): > 90%

Structure (SMILES): CNC(=O)c1cc(Oc2ccc(NC(=O)Nc3ccc(Cl)c(C(F)(F)F)c3)cc2)ccn1 [Sorafenib]
IC50 (MCF7-DoxyR cells [1]; Homo sapiens, MCF7, read-out: IC-50, DoxyR CSC propagation): 0.5 to 1 µM

Structure (SMILES): O=C1C(O)=C([C@H]2CC[C@H](c3ccc(Cl)cc3)CC2)C(=O)c2ccccc21 [Atovaquone]
inhibition at 1 µM (MCF7-DoxyR cells [1]; Homo sapiens, MCF7, 120 h, 1 μM Atovaquone, mammospheres, 5 days): > 85%

Structure (SMILES): O=CC[C@@H](O)[C@H](O)[C@H](O)CO [2-DG, 2-deoxy-glucose]
inhibition at 10000 µM (MCF7-DoxyR cells [1]; Homo sapiens, MCF7, 10 mM 2-DG, read-out: inhibition of propagation of DoxyR CSCs): > 90% | inhibition at 20000 µM (MCF7-DoxyR cells [1]; Homo sapiens, MCF7, 20 mM 2-DG, read-out: inhibition of propagation of DoxyR CSCs): 100%

Results, then the molecule that gave them:

IC50 (MCF7-DoxyR cells [1]; [4]): ~0.5 µM
Structure (SMILES): CCc1c2c(nc3ccc(OC(=O)N4CCC(N5CCCCC5)CC4)cc13)-c1cc3c(c(=O)n1C2)COC(=O)[C@]3(O)CC [Irinotecan]

IC50 (MCF7-DoxyR cells [1]; [5]): ~1 µM
Structure (SMILES): COc1ccc2cc3[n+](cc2c1OC)CCc1cc2c(cc1-3)OCO2 [Berberine, Berberine Chloride]

IC50 (MCF7-DoxyR cells [1]; [5]): 10 to 50 µM
Structure (SMILES): CC(C)(C)C(O)/C=C/c1ccc2c(c1)OCO2 (centres unmarked) [Stiripentol]
